Calls of active or inactive are those of the source. The rule behind the calls is not given here.
Tests used:
[1] = Cytotoxicity against human K562-Tax cells assessed as reduction in cell viability incubated for 72 hrs by MTS assay; type: functional, cell-based
[2] = Chemical stability in PBS buffer at pH 7.4 assessed as compound remaining measured at 30 mins by RF-MS analysis; type: physicochemical; details: read-out: Stability
[3] = Chemical stability in PBS buffer at pH 7.4 assessed as compound remaining measured at 120 mins by RF-MS analysis; type: physicochemical; details: read-out: Stability
[4] = Stability in human liver microsomes assessed as compound remaining at 2 uM measured at 60 mins in presence of NADPH by RF-MS analysis; type: ADME, Microsome; details: read-out: Stability
[5] = Cytotoxicity against human BJ cells assessed as reduction in cell viability incubated for 72 hrs by MTS assay; type: toxicity, cell-based
[6] = Plasma protein binding in human at 10 uM by rapid equilibrium dialysis based RF-MS analysis; type: ADME, cell-free; details: read-out: PB (converted)
[7] = Cytotoxicity against human MRC5 cells assessed as reduction in cell viability incubated for 72 hrs by MTS assay; type: toxicity, cell-based
[8] = Apparent permeability of the compound in MDCK-MDR1 cells assessed as drug recovery at 10 uM incubated for 1 hr by RF-MS analysis; type: ADME, cell-based, Canis lupus familiaris; details: dog, read-out: Drug recovery
[9] = Apparent permeability of the compound in MDCK-MDR1 cells at 10 uM incubated for 1 hr by RF-MS analysis; type: ADME, cell-based, Canis lupus familiaris; details: dog
[10] = Stability in human liver microsomes assessed as compound remaining at 2 uM measured at 15 mins in presence of NADPH by RF-MS analysis; type: ADME, Microsome; details: read-out: Stability
[11] = Stability in human liver microsomes assessed as compound remaining at 2 uM measured at 30 mins in presence of NADPH by RF-MS analysis; type: ADME, Microsome; details: read-out: Stability
[12] = Stability in human plasma assessed as compound remaining at 2 uM measured at 15 mins by RF-MS analysis; type: ADME, cell-free; details: read-out: Stability
[13] = Chemical stability in PBS buffer at pH 7.4 assessed as compound remaining measured at 15 mins by RF-MS analysis; type: physicochemical; details: read-out: Stability
[14] = Cytotoxicity against human HCT116-p53-null cells assessed as reduction in cell viability incubated for 72 hrs by MTS assay; type: functional, cell-based
[15] = Stability in human plasma assessed as compound remaining at 2 uM measured at 60 mins by RF-MS analysis; type: ADME, cell-free; details: read-out: Stability
[16] = system: HCT-116; assay: Cytotoxicity against human HCT-116 cells assessed as reduction in cell viability incubated for 72 hrs by MTS assay; type: functional, cell-based; details: HCT-116, 72 h
[17] = system: U2OS; assay: Cytotoxicity against human U2OS cells assessed as reduction in cell viability incubated for 72 hrs by MTS assay; type: functional, cell-based
[18] = system: K562; assay: Cytotoxicity against human K562 cells assessed as reduction in cell viability incubated for 72 hrs by MTS assay; type: functional, cell-based; details: K562, 72 h
[19] = system: CCRF-CEM; assay: Cytotoxicity against human CCRF-CEM cells assessed as reduction in cell viability incubated for 72 hrs by MTS assay; type: functional, cell-based
[20] = Stability in human plasma assessed as compound remaining at 2 uM measured at 120 mins by RF-MS analysis; type: ADME, cell-free; details: read-out: Stability
[21] = Efflux ratio of apparent permeability across basolateral to apical side over apical to basolateral side in MDCK-MDR1 cells; type: ADME, cell-based, Canis lupus familiaris; details: dog
[22] = Chemical stability in PBS buffer at pH 7.4 assessed as compound remaining measured at 60 mins by RF-MS analysis; type: physicochemical; details: read-out: Stability
[23] = system: CEM-DNR; assay: Cytotoxicity against human CEM-DNR cells assessed as reduction in cell viability incubated for 72 hrs by MTS assay; type: functional, cell-based
[24] = system: A549; assay: Cytotoxicity against human A549 cells assessed as reduction in cell viability incubated for 72 hrs by MTS assay; type: functional, cell-based; details: A549, 72 h
[25] = Stability in human plasma assessed as compound remaining at 2 uM measured at 30 mins by RF-MS analysis; type: ADME, cell-free; details: read-out: Stability
[26] = system: CCRF-CEM; assay: Induction of apoptosis in human CCRF-CEM cells assessed as early apoptotic cells at 1 time IC50 incubated for 24 hrs by Annexin V and propidium iodide staining based flow cytometry analysis (reference value: […]); type: functional
[27] = system: CCRF-CEM; assay: Induction of apoptosis in human CCRF-CEM cells assessed as late apoptotic cells at 1 time IC50 incubated for 24 hrs by Annexin V and propidium iodide staining based flow cytometry analysis (reference value: […]); type: functional
[28] = system: CCRF-CEM; assay: Induction of apoptosis in human CCRF-CEM cells assessed as accumulation of Bid protein expression at 1 to 5 times IC50 incubated for 24 hrs by Western blot analysis; type: functional, cell-based
[29] = system: CCRF-CEM; assay: Induction of apoptosis in human CCRF-CEM cells assessed as late apoptotic cells at 5 times IC50 incubated for 24 hrs by Annexin V and propidium iodide staining based flow cytometry analysis […]; type: functional
[30] = system: CCRF-CEM; assay: Induction of apoptosis in human CCRF-CEM cells assessed as accumulation of Bax protein expression at 1 to 5 times IC50 incubated for 24 hrs by Western blot analysis; type: functional, cell-based
[31] = system: CCRF-CEM; assay: Induction of apoptosis in human CCRF-CEM cells assessed as viable cells at 5 times IC50 incubated for 24 hrs by Annexin V and propidium iodide staining based flow cytometry analysis […]; type: functional
[32] = system: CCRF-CEM; assay: Induction of apoptosis in human CCRF-CEM cells assessed as PARP cleavage at 1 to 5 times IC50 incubated for 24 hrs by Western blot analysis; type: functional, cell-based
[33] = system: CCRF-CEM; assay: Induction of apoptosis in human CCRF-CEM cells assessed as early apoptotic cells at 5 times IC50 incubated for 24 hrs by Annexin V and propidium iodide staining based flow cytometry analysis […]; type: functional
[34] = system: CCRF-CEM; assay: Induction of apoptosis in human CCRF-CEM cells assessed as viable cells at 1 time IC50 incubated for 24 hrs by Annexin V and propidium iodide staining based flow cytometry analysis […]; type: functional
[35] = system: CCRF-CEM; assay: Induction of apoptosis in human CCRF-CEM cells assessed as increase in Noxa expression at 1 to 5 times IC50 incubated for 24 hrs by Western blot analysis; type: functional, cell-based
[36] = system: CCRF-CEM; assay: Induction of apoptosis in human CCRF-CEM cells assessed as decrease in c-Myc expression at 1 to 5 times IC50 incubated for 24 hrs by Western blot analysis; type: functional, cell-based
[37] = system: CCRF-CEM; assay: Induction of apoptosis in human CCRF-CEM cells assessed as necrotic cells at 5 times IC50 incubated for 24 hrs by Annexin V and propidium iodide staining based flow cytometry analysis […]; type: functional
[38] = system: CCRF-CEM; assay: Induction of apoptosis in human CCRF-CEM cells assessed as necrotic cells at 1 time IC50 incubated for 24 hrs by Annexin V and propidium iodide staining based flow cytometry analysis (reference value: 0.0%); type: functional
[39] = system: HeLa; assay: Antitumor activity in human HeLa cells cultured as spheroids assessed as inhibition of spheroid opening at 1 uM incubated for 3 days; type: functional, cell-based; details: time 3.0 day
[40] = system: HCT-116; assay: Antitumor activity in human HCT-116 cells cultured as spheroids assessed as inhibition of cell growth at 10 uM incubated for 3 days; type: functional; design: scale not given: the % may be the effect or the level left; details: time 3 day

remaining at 0.5 h [2] [%]	remaining at 2 h [3] [%]	remaining at 1 h, 2 µM [4] [%]	fraction unbound at 10 µM [6]	recovery at 1 h, 10 µM [8] [%]	Papp at 1 h, 10 µM [9] [×10⁻⁶ cm/s]	remaining at 0.25 h, 2 µM [10] [%]	remaining at 0.5 h, 2 µM [11] [%]	remaining at 0.25 h, 2 µM [12] [%]	remaining at 0.25 h [13] [%]	remaining at 1 h, 2 µM [15] [%]	remaining at 2 h, 2 µM [20] [%]	SMILES	IC50 [1] [nM]	IC50 at 72 h [5] [nM]	IC50 at 72 h [7] [nM]	IC50 [14] [nM]	IC50 [16] [nM]	IC50 [17] [nM]	IC50 [18] [nM]	IC50 [19] [nM]	also measured
92.7	77.9	97	0.0044	77	0.28	99	98.8	94.3	98.5	87.8	83.4	C=C(C)[C@@H]1CC[C@]2(C(=O)OCc3cn([C@H]4O[C@H](COC(C)=O)[C@@H](OC(C)=O)[C@H](OC(C)=O)[C@H]4OC(C)=O)nn3)CC[C@]3(C)[C@H](CC[C@@H]4[C@@]5(C)CC[C@H](O)C(C)(C)[C@@H]5CC[C@]43C)[C@@H]12	> 50000	> 50000	> 50000	> 50000	> 50000	> 50000	> 50000	> 50000	efflux ratio [21]: 5.61; remaining at 1 h [22]: 82.3%; IC50 [23]: > 50000 nM; IC50 [24]: > 50000 nM; remaining at 0.5 h, 2 µM [25]: 92.2%
–	–	–	–	–	–	–	–	–	–	–	–	C=C(C=O)[C@@H]1CC[C@]2(C(=O)OCc3cn([C@H]4O[C@H](CO)[C@@H](O)[C@H](O)[C@H]4O)nn3)CC[C@]3(C)[C@H](CC[C@@H]4[C@@]5(C)Cc6nccnc6C(C)(C)[C@@H]5CC[C@]43C)[C@@H]12 (stereo in doubt)	–	–	–	–	–	–	–	–	Activity [26]: 4.9%; Activity [27]: 3.3%; Activity [28]: Active; Activity [29]: 57.7%; Activity [30]: Active; Activity [31]: 0.6%; Activity [32]: Active; Activity [33]: 41.5%; Activity [34]: 86.9%; Activity [35]: Active; Activity [36]: Active; Activity [37]: 0.1%; Activity [38]: 5%
92.5	83.8	66.6	0.0015	103	0.32	95.6	82.7	93.9	97.1	87	82.3	C=C(C=O)[C@@H]1CC[C@]2(C(=O)OCc3cn([C@H]4O[C@H](COC(C)=O)[C@@H](OC(C)=O)[C@H](OC(C)=O)[C@H]4OC(C)=O)nn3)CC[C@]3(C)[C@H](CC[C@@H]4[C@@]5(C)CC[C@H](O)C(C)(C)[C@@H]5CC[C@]43C)[C@@H]12	1600	1800	1700	1700	1600	1700	1400	600	Activity [39]: Active; efflux ratio [21]: 3.77; remaining at 1 h [22]: 89.2%; IC50 [23]: 1600 nM; IC50 [24]: 1800 nM; remaining at 0.5 h, 2 µM [25]: 88.7%; Activity [40]: 100%
